In patent publication US11401555B2, “Genetic polymorphisms associated with stroke, methods of detection and uses thereof” (CELERA CORPORATION, priority 2008, dated 2022):

Experiment: Stroke statin response (SSR) in the CARE pravastatin trial: pravastatin-treated versus placebo-treated, by SNP genotype
Type: in vivo, human
Settings: CARE; for HR: pravastatin vs placebo; for HR (hazard ratio for stroke, pravastatin vs placebo): rs10757274 (hCV26505812), placebo = ref; for EVENTS (number of stroke events): rs10757274, pravastatin arm; for EVENTS: stroke events in pravastatin arm

Q: Which results are given for CC[C@H](C)C(=O)O[C@H]1C[C@H](O)C=C2C=C[C@H](C)[C@H](CC[C@@H](O)C[C@@H](O)CC(=O)O)[C@H]21 [pravastatin]?
A: HR (hCV945276 rs89962 KRT4, DOM, genotype TG + TT, 95% CL 0.48-1.027, p 0.0683): 0.7; HR (hCV945276 rs89962 KRT4, GEN, genotype GG, 95% CL 0.349-1.196, p 0.1641): 0.65; HR (hCV945276 rs89962 KRT4, GEN, genotype TG, 95% CL 0.423-0.979, p 0.0397): 0.64; HR (hCV945276 rs89962 KRT4, GEN, genotype TT, 95% CL 0.392-2.375, p 0.9381): 0.96; HR (hCV945276 rs89962 KRT4, REC, genotype TG + GG, 95% CL 0.458-0.916, p 0.0141): 0.65; HR (hCV1022614 rs220479 ITGAE, DOM, genotype CT + CC, 95% CL 0.541-1.024, p 0.0696): 0.74; HR (hCV1022614 rs220479 ITGAE, GEN, genotype CC, 95% CL 0.609-1.295, p 0.5366): 0.89; HR (hCV1022614 rs220479 ITGAE, GEN, genotype CT, 95% CL 0.257-0.887, p 0.0192): 0.48; HR (hCV1022614 rs220479 ITGAE, GEN, genotype TT, 95% CL 0.203-4.047, p 0.8969): 0.91; HR (hCV1022614 rs220479 ITGAE, REC, genotype CT + TT, 95% CL 0.294-0.921, p 0.0248): 0.52; HR (hCV2091644 rs1010 VAMP8, DOM, genotype CT + CC, 95% CL 0.507-1.126, p 0.1678): 0.76; HR (hCV2091644 rs1010 VAMP8, GEN, genotype CC, 95% CL 0.51-2.73, p 0.6997): 1.18; HR (hCV2091644 rs1010 VAMP8, GEN, genotype CT, 95% CL 0.418-1.045, p 0.0763): 0.66; HR (hCV2091644 rs1010 VAMP8, GEN, genotype TT, 95% CL 0.43-1.186, p 0.1928): 0.71; HR (hCV2091644 rs1010 VAMP8, REC, genotype CT + TT, 95% CL 0.487-0.961, p 0.0284): 0.68; HR (hCV2169762 rs1804689 HPS1, DOM, genotype TG + TT, 95% CL 0.612-1.461, p 0.8004): 0.95; HR (hCV2169762 rs1804689 HPS1, GEN, genotype GG, 95% CL 0.372-0.924, p 0.0214): 0.59; HR (hCV2169762 rs1804689 HPS1, GEN, genotype TG, 95% CL 0.583-1.468, p 0.7398): 0.92; HR (hCV2169762 rs1804689 HPS1, GEN, genotype TT, 95% CL 0.266-3.694, p 0.9903): 0.99; HR (hCV2169762 rs1804689 HPS1, REC, genotype TG + GG, 95% CL 0.529-1.006, p 0.0547): 0.73; HR (hCV2192261 rs3213646 EXOD1, DOM, genotype CT + CC, 95% CL 0.506-1.048, p 0.0882): 0.73; HR (hCV2192261 rs3213646 EXOD1, GEN, genotype CC, 95% CL 0.613-1.799, p 0.8592): 1.05; HR (hCV2192261 rs3213646 EXOD1, GEN, genotype CT, 95% CL 0.328-0.898, p 0.0175): 0.54; HR (hCV2192261 rs3213646 EXOD1, GEN, genotype TT, 95% CL 0.316-1.278, p 0.2036): 0.64; HR (hCV2192261 rs3213646 EXOD1, REC, genotype CT + TT, 95% CL 0.379-0.857, p 0.007): 0.57; HR (hCV7425232 rs3900940 MYH15, DOM, genotype CT + CC, 95% CL 0.468-1.102, p 0.1293): 0.72; HR (hCV7425232 rs3900940 MYH15, GEN, genotype CC, 95% CL 0.461-2.296, p 0.9448): 1.03; HR (hCV7425232 rs3900940 MYH15, GEN, genotype CT, 95% CL 0.365-1.022, p 0.0604): 0.61; HR (hCV7425232 rs3900940 MYH15, GEN, genotype TT, 95% CL 0.442-1.146, p 0.1618): 0.71; HR (hCV7425232 rs3900940 MYH15, REC, genotype CT + TT, 95% CL 0.467-0.939, p 0.0207): 0.66; HR (hCV11450563 rs2038366, DOM, genotype GT + GG, 95% CL 0.567-1.148, p 0.2334): 0.81; HR (hCV11450563 rs2038366, GEN, genotype GG, 95% CL 0.669-1.975, p 0.6132): 1.15; HR (hCV11450563 rs2038366, GEN, genotype GT, 95% CL 0.381-0.986, p 0.0436): 0.61; HR (hCV11450563 rs2038366, GEN, genotype TT, 95% CL 0.472-2.724, p 0.7789): 1.13; HR (hCV11450563 rs2038366, REC, genotype GT + TT, 95% CL 0.463-1.064, p 0.0954): 0.7; HR (hazard ratio for stroke, pravastatin vs placebo) (adjusted (age, male, current smoking, hypertension, diabetes, BMI, baseline LDL, HDL), mode DOM, genotype GA + GG): 0.73; HR (hazard ratio for stroke, pravastatin vs placebo) (adjusted (age, male, current smoking, hypertension, diabetes, BMI, baseline LDL, HDL), mode GEN, genotype GA): 0.61; HR (hazard ratio for stroke, pravastatin vs placebo) (adjusted (age, male, current smoking, hypertension, diabetes, BMI, baseline LDL, HDL), mode GEN, genotype GG): 1; HR (hazard ratio for stroke, pravastatin vs placebo) (adjusted (age, male, current smoking, hypertension, diabetes, BMI, baseline LDL, HDL), mode REC, genotype GA + AA): 0.69; HR (hazard ratio for stroke, pravastatin vs placebo) (unadjusted, mode DOM, genotype AG + AA): 0.65; HR (hazard ratio for stroke, pravastatin vs placebo) (unadjusted, mode GEN, genotype AG): 0.58; HR (hazard ratio for stroke, pravastatin vs placebo) (unadjusted, mode GEN, genotype GG): 0.91; HR (hazard ratio for stroke, pravastatin vs placebo) (unadjusted, mode REC, genotype AG + GG): 0.69; EVENTS (number of stroke events) (adjusted analysis, mode DOM, genotype GA + GG, total 1131): 54; EVENTS (number of stroke events) (adjusted analysis, mode GEN, genotype AA, total 328): 18; EVENTS (number of stroke events) (adjusted analysis, mode GEN, genotype GA, total 690): 29; EVENTS (number of stroke events) (adjusted analysis, mode GEN, genotype GG, total 441): 25; EVENTS (number of stroke events) (unadjusted, mode DOM, genotype AG + AA, total 981): 44; EVENTS (number of stroke events) (unadjusted, mode GEN, genotype AA, total 315): 17; EVENTS (number of stroke events) (unadjusted, mode GEN, genotype AG, total 666): 27; EVENTS (number of stroke events) (unadjusted, mode GEN, genotype GG, total 414): 23; EVENTS (number of stroke events) (unadjusted, mode REC, genotype AG + GG, total 1080): 50; EVENTS (rs1010 VAMP8, DOM, genotype CT + CC, TOTAL 957): 43; EVENTS (rs1010 VAMP8, GEN, genotype CC, TOTAL 271): 12; EVENTS (rs1010 VAMP8, GEN, genotype CT, TOTAL 686): 31; EVENTS (rs1010 VAMP8, GEN, genotype TT, TOTAL 455): 26; EVENTS (rs1010 VAMP8, REC, genotype CT + TT, TOTAL 1141): 57; EVENTS (rs89962 KRT4, DOM, genotype TG + TT, TOTAL 912): 46; EVENTS (rs89962 KRT4, GEN, genotype GG, TOTAL 443): 17; EVENTS (rs89962 KRT4, GEN, genotype TG, TOTAL 674): 37; EVENTS (rs89962 KRT4, GEN, genotype TT, TOTAL 238): 9; EVENTS (rs89962 KRT4, REC, genotype TG + GG, TOTAL 1117): 54; EVENTS (rs220479 ITGAE, DOM, genotype CT + CC, TOTAL 1381): 67; EVENTS (rs220479 ITGAE, GEN, genotype CC, TOTAL 973): 52; EVENTS (rs220479 ITGAE, GEN, genotype CT, TOTAL 408): 15; EVENTS (rs220479 ITGAE, GEN, genotype TT, TOTAL 46): 3; EVENTS (rs220479 ITGAE, REC, genotype CT + TT, TOTAL 454): 18; EVENTS (rs1804689 HPS1, DOM, genotype TG + TT, TOTAL 759): 40; EVENTS (rs1804689 HPS1, GEN, genotype GG, TOTAL 668): 30; EVENTS (rs1804689 HPS1, GEN, genotype TG, TOTAL 652): 36; EVENTS (rs1804689 HPS1, GEN, genotype TT, TOTAL 107): 4; EVENTS (rs1804689 HPS1, REC, genotype TG + GG, TOTAL 1320): 66; EVENTS (rs2038366, DOM, genotype GT + GG, TOTAL 1177): 57; EVENTS (rs2038366, GEN, genotype GG, TOTAL 539): 29; EVENTS (rs2038366, GEN, genotype GT, TOTAL 638): 28; EVENTS (rs2038366, GEN, genotype TT, TOTAL 151): 10; EVENTS (rs2038366, REC, genotype GT + TT, TOTAL 789): 38; EVENTS (rs3213646 EXOD1, DOM, genotype CT + CC, TOTAL 1108): 51
